Results on two compounds are retold here after patent publication US7060714B2, “Fungal strain acremonium sp.MT70646(KCTC 0916BP), novel compounds produced by this strain and their use” (Korea Research Institute of Bioscience and Biotechnology, priority 1999, dated 2006).

In brackets after ≈: the same amount, converted by molar mass. Some results are limits rather than exact numbers.

In series [1] the test system is human umbilical vein enothelial cell (HUVEC). The experiment in a line: Angiogenesis: HUVEC tube formation on Matrigel. The format is cell-based. The conditions noted are these: 18 hr, read-out: Inhibitory activity against the angiogenesis (tube formation); for inhibition at 1 µg/mL: 1 μg/mL; for inhibition at 3 µg/mL: 3 μg/mL; for inhibition at 10 µg/mL: 10 μg/mL. The procedure: After thawing Matrigel on ice, 40 μL of the Matrigel was added into each wells of a 96 well plate and placed for 30 min at 37° C. to solidify the Matrigel. Then, 180 μL of human umbilical vein enothelial cell (HUVEC) suspension (2×10^4 cells) was added made into each well of the solidified Matrigel and incubated for 18 hr in a 5% CO2 atmosphere at 37° C. The degree of tube formation was observed by microscope.

The nature of series [2]: Solubility in solvents. The format is physicochemical. The text has this: The results of infrared (IR) absorption spectrum; ^1H-NMR and ^13C-NMR spectrum; and HMBC NMR spectrum analyses are shown in the Tables 2 & 3 and FIGS. 1–3.
Series [3] has as its target T1, heparinase (Pedobacter heparinus, UniProt Q05819).
T1 construct: the heparinase was isolated from Flavobacterium heparinum; purchased Sigma Co. Ltd. (U.S.A.); host or cells: isolated from Flavobacterium heparinum
The experiment in a line: Inhibition of heparinase (heparin / antithrombin III / factor Xa chromogenic assay). The class given is biochemical, Flavobacterium heparinum. The procedure: To 17 μL of reaction buffer (14 mM sodium acetate and 1.4 mM CaCl2, pH 7.0) containing 10 ng of heparin were added 3 μL of test sample along with 0.2 unit of heparinase and placed at room temperature for 15 min. Then, 25 μL of antithrombin III solution was added and allowed to react for 2 min at room temperature and added with 25 μL of factor Xa solution. In one minute, 25 μL of factor Xa substrate was added to react for 5–10 min and then terminated the reaction by adding 25 μL of glacial acetic acid. The light absorbency was measured at 410 nm. The rate of enzyme inhibition was calculated as in the following equation 1, wherein IC50 was the concentration of the inhibitor when the rate of enzyme inhibition reached 50%. Inhibition (%)=(A−C)/(A−B)×100 [Equation 1]
In the above equation 1, A represents the light absorbance of the reagent after reaction when the inhibitor was not added, B represents the light absorbance of the reagent after reaction when enzyme solution was not added, and C represents the light absorbance of the reagent after reaction when the inhibitor was added.
The heparinase used in this experiment was purchased from Sigma Co. Ltd. (U.S.A.), wherein the heparinase was isolated from Flavobacterium heparinum.

In series [4] the test system is B16 melanoma cells. The series can be described thus: Invasion of B16 melanoma cells (Matrigel invasion). The class given is cell-based. As to conditions: for Relative Rate of Invasion (%): control 100; for No. of Cells Invaded: control 420.7 ± 15.6. The procedure:
MT70646 (KCTC 0916BP) against the invasion of B16 melanoma cells through the synthetic basal membranes. […]
BioCoat invasion chamber (precoated Matrigel) was swelled for 30 min by serum-free DMEM and the chamber was placed into the well of 24 well plate which contains 600 μL of HT 1080 conditioned medium. And then 450 μL of melanoma cell suspension (4.5×10^3 cells) in DMEM medium containing 0.5% albumin was added into the chamber. After adding 50 μL of test sample, the chamber was incubated for 22–24 hr at 37° C. in a 5% CO2 atmosphere. And the filter of chamber was detached and fixed with methanol. After staining the filter with 5% crystal violet and the cells on the upper surface of the filters were removed by wiping them with a cotton swab. The cells invaded through the Matrigel and filter to the lower surface were counted under a microscope.

Series [5] deals with T2, heparanase derived from human platelets (Homo sapiens, UniProt Q9Y251).
T2 construct: 10 ng of heparanase derived from human platelets; from tissue; host or cells: human platelets
T2 sequence (Q9Y251 158-543 limits assumed): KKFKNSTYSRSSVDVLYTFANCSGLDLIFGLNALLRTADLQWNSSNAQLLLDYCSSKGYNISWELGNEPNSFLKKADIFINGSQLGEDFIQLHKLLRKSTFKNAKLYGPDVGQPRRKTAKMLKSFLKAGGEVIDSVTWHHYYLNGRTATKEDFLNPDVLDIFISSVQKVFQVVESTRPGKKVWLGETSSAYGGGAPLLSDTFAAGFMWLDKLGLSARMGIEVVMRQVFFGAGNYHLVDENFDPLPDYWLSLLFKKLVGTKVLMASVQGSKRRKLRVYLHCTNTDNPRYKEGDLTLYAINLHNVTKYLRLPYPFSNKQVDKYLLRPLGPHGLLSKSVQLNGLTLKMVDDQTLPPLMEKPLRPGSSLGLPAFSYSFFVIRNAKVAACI
T2 sequence (Q9Y251 36-109 limits assumed): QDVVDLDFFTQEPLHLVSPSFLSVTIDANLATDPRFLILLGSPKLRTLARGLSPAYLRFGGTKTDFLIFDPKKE
The series can be described thus: Inhibition of heparanase (3H-heparan sulfate degradation). The format is biochemical. The conditions noted are these: 10 ng heparanase, 30 min at 37° C., pH 5.1; read-out: IC50 against heparanase.
Source text: After the reaction, the reaction mixture was passed through a column filled with HRG-Sepharose beads and eluted out the degraded heparan sulfate by heparanase to measure the radioactivity.

T1 sequence (Q05819 22-384): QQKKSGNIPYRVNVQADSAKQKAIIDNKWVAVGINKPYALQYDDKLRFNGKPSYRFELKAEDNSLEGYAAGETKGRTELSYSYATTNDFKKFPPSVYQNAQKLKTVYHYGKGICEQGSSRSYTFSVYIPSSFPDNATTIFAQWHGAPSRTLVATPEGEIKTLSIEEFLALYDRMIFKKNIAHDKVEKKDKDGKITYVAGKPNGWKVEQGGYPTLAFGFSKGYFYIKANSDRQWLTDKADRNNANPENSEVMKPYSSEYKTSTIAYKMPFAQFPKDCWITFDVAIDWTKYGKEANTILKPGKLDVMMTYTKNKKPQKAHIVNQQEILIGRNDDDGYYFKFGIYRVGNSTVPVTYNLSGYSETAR

Regarding `CCCCCCCCCCCCCCCc1cc(OC2OC(C(=O)OC)C(O)C(O)C2O)cc(O)c1C(=O)Oc1cc(C)c(C(=O)O)c(O)c1` (single isomer, unassigned) [CRM646-B], in series [1], the inhibition at 1 µg/mL was less than 30%. The inhibition at 3 µg/mL in series [1] stood at 30%. Besides, the inhibition at 10 µg/mL in series [1] was 60%; in series [4] (Mus musculus, B16, 10 μg/mL, read-out: Inhibitory activity against invasion) it was more than 80%. For the same compound, in series [2], the “Physicochemical properties (comparison)” value is “almost same as in the compound CRM646-A”. For the same compound, the half-maximal inhibitory concentration (IC50) in series [3] is 25 µM; in series [4] (Mus musculus, B16, estimated from Table 4, read-out: IC50 against invasion of B16 melanoma cells) it was approximately 2 µg/mL (≈ 2.84 µM). Besides, the “Relative Rate of Invasion (%)” value in series [4] (1 μg/mL) was found to be 89.5%; in series [4] (3 μg/mL) it was 36.9%; in series [4] (10 μg/mL), 13.3%. Further, the “No. of Cells Invaded” value in series [4] (1 μg/mL) was 376.7 ± 19.7; in series [4] (3 μg/mL), 155.3 ± 18.6; in series [4] (10 μg/mL), 56.0 ± 8.9.

In the case of `CCCCCCCCCCCCCCCc1cc(OC2OC(C(=O)O)C(O)C(O)C2O)cc(O)c1C(=O)Oc1cc(C)c(C(=O)O)c(O)c1` (centres unmarked) [CRM646-A], in series [1], the inhibition at 1 µg/mL was less than 30%, the inhibition at 3 µg/mL was less than 30% and the inhibition at 10 µg/mL was found to be 30%. In addition, in series [2], the “Solubility in ethanol, butanol, dimethyl sulfoxide (DMSO)” value is recorded as “well dissolved”; the “Solubility in water, hexane and chloroform” value is listed as “not dissolved easily”. Further, the IC50 in series [3] came out at 3 µM. In series [4] (1 μg/mL), the “Relative Rate of Invasion (%)” value stood at 100.1% and the “No. of Cells Invaded” value turned out to be 421.0 ± 15.6. Besides, in series [4] (3 μg/mL), the “Relative Rate of Invasion (%)” value stood at 91.4% and the “No. of Cells Invaded” value is listed as 384.4 ± 9.4. In series [4] (10 μg/mL), the “Relative Rate of Invasion (%)” value is listed as 71.5% and the “No. of Cells Invaded” value is 300.8 ± 10.2. Moreover, the IC50 in series [5] is 10 µM.

Usually IC50 stands for the concentration that inhibits the measured activity by half.
